Results as given in ChEMBL document CHEMBL3046452, “Synthesis and pharmacological evaluation of some novel 2-pyrazolines bearing benzenesulfonamide as anti-inflammatory and blood glucose lowering agents” (Med Chem Res, 2013).

Assays:
Rattus norvegicus [1] = experiment: Antidiabetic activity in fasted glucose fed hyperglycemic normal Rattus norvegicus Wistar albino (rat) assessed as blood glucose level at 0.05 mmol/kg administered 30 min prior to glucose-challenge measured after 60 min (reference value: 126.5 +/- 3.8 mg/dl); type: functional
Rattus norvegicus [2] = experiment: Anti-inflammatory activity in Rattus norvegicus Wistar albino (rat) assessed as inhibition of carrageenan-induced paw edema at 0.05 mmol/kg administered 30 min prior to carrageenan-challenge measured after 5 hr relative to control; type: functional
Rattus norvegicus [3] = experiment: Anti-inflammatory activity in Rattus norvegicus Wistar albino (rat) assessed as inhibition of carrageenan-induced paw edema at 0.05 mmol/kg administered 30 min prior to carrageenan-challenge measured after 3 hr relative to control; type: functional
Rattus norvegicus [4] = experiment: Ulcerogenic activity in fasted Rattus norvegicus Wistar albino (rat) at 0.15 mmol/kg , po measured after 6 hr; type: toxicity, organism-based; conditions: in vivo

## NS(=O)(=O)c1ccc(N2N=C(c3cccc(O)c3)C[C@H]2/C=C/c2ccccc2)cc1
Rattus norvegicus [1]
  Activity: 131 mg/dL
Rattus norvegicus [2]
  inhibition in vivo at 50 µmol/kg: 59.2%
Rattus norvegicus [3]
  inhibition in vivo at 50 µmol/kg: 39.9%

## NS(=O)(=O)c1ccc(N2N=C(c3cccc(O)c3)C[C@H]2c2ccco2)cc1
Rattus norvegicus [1]
  Activity: 133 mg/dL
Rattus norvegicus [2]
  inhibition in vivo at 50 µmol/kg: 29.6%
Rattus norvegicus [3]
  inhibition in vivo at 50 µmol/kg: 35.8%

## NS(=O)(=O)c1ccc(N2N=C(c3cccc(O)c3)C[C@H]2c2c3ccccc3cc3ccccc23)cc1
Rattus norvegicus [1]
  Activity: 136.6 mg/dL
Rattus norvegicus [4]
  Activity: Non-toxic
Rattus norvegicus [2]
  inhibition in vivo at 50 µmol/kg: 77.7%
Rattus norvegicus [3]
  inhibition in vivo at 50 µmol/kg: 59.8%

## NS(=O)(=O)c1ccc(N2N=C(c3cccc(O)c3)C[C@H]2c2ccccc2)cc1
Rattus norvegicus [1]
  Activity: 126.3 mg/dL
Rattus norvegicus [4]
  Activity: Non-toxic
Rattus norvegicus [2]
  inhibition in vivo at 50 µmol/kg: 77.7%
Rattus norvegicus [3]
  inhibition in vivo at 50 µmol/kg: 35.8%

## NS(=O)(=O)c1ccc(N2N=C(c3cccc(O)c3)C[C@H]2c2ccc(Cl)cc2)cc1
Rattus norvegicus [1]
  Activity: 134 mg/dL
Rattus norvegicus [2]
  inhibition in vivo at 50 µmol/kg: 51.8%
Rattus norvegicus [3]
  inhibition in vivo at 50 µmol/kg: 19.2%

## COc1ccc([C@@H]2CC(c3cccc(O)c3)=NN2c2ccc(S(N)(=O)=O)cc2)cc1
Rattus norvegicus [1]
  Activity: 116.5 mg/dL
Rattus norvegicus [2]
  inhibition in vivo at 50 µmol/kg: 62.9%
Rattus norvegicus [3]
  inhibition in vivo at 50 µmol/kg: 64.7%

## Cc1ccc([C@@H]2CC(c3cccc(O)c3)=NN2c2ccc(S(N)(=O)=O)cc2)cc1
Rattus norvegicus [1]
  Activity: 138.6 mg/dL
Rattus norvegicus [2]
  inhibition in vivo at 50 µmol/kg: 66%
Rattus norvegicus [3]
  inhibition in vivo at 50 µmol/kg: 64.7%

## NS(=O)(=O)c1ccc(N2N=C(c3cccc(O)c3)C[C@H]2c2ccc(O)cc2)cc1
Rattus norvegicus [1]
  Activity: 121 mg/dL
Rattus norvegicus [4]
  Activity: Non-toxic
Rattus norvegicus [2]
  inhibition in vivo at 50 µmol/kg: 77.7%
Rattus norvegicus [3]
  inhibition in vivo at 50 µmol/kg: 64.7%

## NS(=O)(=O)c1ccc(N2N=C(c3cccc(O)c3)C[C@H]2c2ccccc2Cl)cc1
Rattus norvegicus [1]
  Activity: 121 mg/dL
Rattus norvegicus [2]
  inhibition in vivo at 50 µmol/kg: 70.3%
Rattus norvegicus [3]
  inhibition in vivo at 50 µmol/kg: 32.6%

## NS(=O)(=O)c1ccc(N2N=C(c3cccc(O)c3)C[C@H]2c2ccccc2O)cc1
Rattus norvegicus [1]
  Activity: 133 mg/dL
Rattus norvegicus [2]
  inhibition in vivo at 50 µmol/kg: 55.5%
Rattus norvegicus [3]
  inhibition in vivo at 50 µmol/kg: 35.4%

## COc1ccc([C@@H]2CC(c3cccc(O)c3)=NN2c2ccc(S(N)(=O)=O)cc2)cc1OC
Rattus norvegicus [1]
  Activity: 111 mg/dL
Rattus norvegicus [2]
  inhibition in vivo at 50 µmol/kg: 66.7%
Rattus norvegicus [3]
  inhibition in vivo at 50 µmol/kg: 55.9%

## COc1cc([C@@H]2CC(c3cccc(O)c3)=NN2c2ccc(S(N)(=O)=O)cc2)cc(OC)c1OC
Rattus norvegicus [1]
  Activity: 94.6 mg/dL
Rattus norvegicus [2]
  inhibition in vivo at 50 µmol/kg: 74.4%
Rattus norvegicus [3]
  inhibition in vivo at 50 µmol/kg: 51.9%

## Cc1ccc(-c2cc(C(F)(F)F)nn2-c2ccc(S(N)(=O)=O)cc2)cc1 [CELECOXIB]
Rattus norvegicus [2]
  inhibition in vivo at 50 µmol/kg: 82.2%
Rattus norvegicus [3]
  inhibition in vivo at 50 µmol/kg: 75.9%

## Cc1ccc(S(=O)(=O)NC(=O)NN2CC3CCCC3C2)cc1 (configuration not stated) [GLICLAZIDE]
Rattus norvegicus [1]
  Activity: 85.83 mg/dL
